Source: patent US8242166B2, “C(10) ethyl ester and C(10) cyclopropyl ester substituted taxanes” (Florida State University Research Foundation, Inc., priority 2008, dated 2012)
“And” between values parts separate entries of the source, which are not always exact repeats. Equal entries are not always repeated. Where two headings read alike, the source gives them in different places.

Experiments:
[1] = tested on: 786-0; assay: MTT cytotoxicity (IC50), 786-0; type: cell-based; details: Homo sapiens
Procedure: (§1) Compound 17932 was tested in four of these cell lines, while the remaining compounds were tested in all of these cell lines. All cell lines were maintained in RPMI-1640 tissue culture medium (TCM, supplemented with antibiotics and 10% fetal bovine serum) and cultured at 37° C. in humidified air containing 5% CO2. To assess the antiproliferative effects of the test compounds, 172 μL of tumor cell suspension (1.45×10^4 cells/ml) were added to each well of a 96-well plate and incubated for 24 h at 37° C. in 5% CO2 in air to allow cells to adhere. Seven 2-fold drug dilutions in TCM/DMSO were performed in triplicate in separate 96-well plates and 28 μL was transferred to the wells containing tumor cells (200 μL final volume/0.1% DMSO). Plates were incubated for 72 h and cell viability was determined by adding 50 μL of warm TCM containing 5 mg/mL MTT (3-[4,5-dimethylthiazol-2-yl]-2,5-diphenyltetrazolium bromide) to each well and incubating for 1 h at 37° C. Plates were processed and the absorbances of the resulting solutions were measured by a plate reader at 570 nm. […] (GraphPad Prism version 4.00 for Windows). Studies were conducted by Taxolog, Inc., Tallahassee, Fla.

[2] = tested on: BxPC-3 cancer cell line; assay: MTT cytotoxicity (IC50), BxPC-3 (Oncodesign); type: cell-based; details: Homo sapiens
Procedure: BxPC-3 cancer cell line (Source ATCC) and culture medium were purchased and provided by Oncodesign (France).
Tumor cells (5,000 cells per well) were plated in 96-well flat-bottom microtitration plates (Ref 167008, Batch 083310, Nunc, Dutscher, Brumath, France) and incubated at 37° C. for 24 hours before treatment in 100 μl of drug-free RPMI 1640 medium supplemented with 10% FBS. Tumor cell lines were incubated for 72 hours with 10 concentrations of both test substances and TXT (40 to 0.07 nM using ½ step dilutions). Experiments were repeated three times, each assay being issued from quadruplicate. Control cells were treated with the vehicle alone. At the end of treatments, the cytotoxic activity was evaluated by a MTT assay. These studies were conducted at Oncodesign, France.

[3] = tested on: HOP-18; assay: MTT cytotoxicity (IC50), HOP-18; type: cell-based; details: Homo sapiens, 72 h, read-out: IN Vitro IC50 (nm) HOP18
Procedure: as §1

[4] = tested on: A549; assay: MTT cytotoxicity (IC50), A549; type: cell-based; details: Homo sapiens, 72 h, read-out: IN Vitro IC50 (nm) A549
Procedure: as §1

[5] = tested on: A375; assay: MTT cytotoxicity (IC50), A375; type: cell-based; details: Homo sapiens, A-375
Procedure: as §1

[6] = tested on: SNB-19; assay: MTT cytotoxicity (IC50), SNB-19; type: cell-based; details: Homo sapiens, 72 h, read-out: IN Vitro IC50 (nm) SNB19
Procedure: as §1

[7] = tested on: HT29 human tumor xenografts; assay: HT29 xenograft study e210, oral and i.v. (Example 25); details: 25 mg/kg iv qwk × 3
From the text: (§2) The formulation for oral studies was an ethanol and Cremophor formulation while the formulation for compound 18365 and compound 19244 dosed i.v. was 5% ethanol and 95% Liposyn II 20%.

[8] = tested on: MALME-3; assay: MTT cytotoxicity (IC50), MALME-3; type: cell-based; details: Homo sapiens, 72 h, read-out: IN Vitro IC50 (nm) Malme3
Procedure: as §1

[9] = tested on: HT29 human tumor xenografts; assay: HT29 xenograft study e212, oral and i.v. (Example 26); details: 25 mg/kg iv qwk × 3
From the text: as §2

[10] = tested on: SK-MEL-28; assay: MTT cytotoxicity (IC50), SK-MEL-28; type: cell-based; details: Homo sapiens, 72 h, read-out: IN Vitro IC50 (nm) ske-mel28
Procedure: as §1

[11] = tested on: OVCAR4; assay: MTT cytotoxicity (IC50), OVCAR4; type: cell-based; details: Homo sapiens, OVCAR-4, 72 h, read-out: IN Vitro IC50 (nm) OVCAR4
Procedure: as §1

[12] = tested on: OVCAR5; assay: MTT cytotoxicity (IC50), OVCAR5; type: cell-based; details: Homo sapiens, OVCAR-5, 72 h, read-out: IN Vitro IC50 (nm) OVCAR5
Procedure: as §1

[13] = tested on: DLD-1; assay: MTT cytotoxicity (IC50), DLD-1; type: cell-based; details: Homo sapiens
Procedure: as §1

[14] = tested on: human A375 melanoma xenograft; assay: A375 xenograft study e209 (Example 27); details: 25 mg/kg iv qwk × 3
Procedure: The endpoint was a tumor volume of 2,000 mm^3 and the study was terminated on Day 56. Efficacy was assessed by tumor growth delay and the number of partial and complete regressions. Animals with a CR that persisted through Day 56 were classified as long-term tumor-free survivors (TFS).

Structure (SMILES): CC(=O)O[C@@]12CO[C@@H]1C[C@H](O)[C@@]1(C)C(=O)[C@H](O)C3=C(C)[C@@H](OC(=O)[C@H](O)[C@@H](NC(=O)OC(C)(C)C)c4ccccc4)C[C@@](O)([C@@H](OC(=O)c4ccccc4)[C@H]21)C3(C)C [Docetaxel, docetaxel, reference compound]
- IC50 ([1]; MTT, 72 h, read-out: IN Vitro IC50 (nm) 786-0): 6.2 nM
- IC50 ([1]; Resistance MDR1+, read-out: 786-0 Renal (Table 4, quantity not named; IC50 values as Table 2)): 6.2 nM
- IC50 ([2]; BXPC-3, 72 h, Exp 1, MTT, 72 hours, read-out: IC50 (nM) BxPC-3): 0.93 nM
- IC50 ([2]; BXPC-3, 72 h, Exp 2, MTT, 72 hours, read-out: IC50 (nM) BxPC-3): 2.2 nM
- IC50 ([2]; BXPC-3, 72 h, Exp 3, MTT, 72 hours, read-out: IC50 (nM) BxPC-3): 0.73 nM
- IC50 ([2]; BXPC-3, mean of 3 experiments, read-out: IC50 Mean ± SD (nM) BxPC-3): 1.29 ± 0.8 nM
- IC50 [3]: 3.4 nM
- IC50 [4]: 1.3 nM
- IC50 ([5]; MTT, 72 h, read-out: IN Vitro IC50 (nm) A375): 2.4 nM
- IC50 ([5]; Resistance MRP9, read-out: A375 Melanoma (Table 4, quantity not named; IC50 values as Table 2)): 2.4 nM
- IC50 [6]: 1.9 nM
- % TGD [7]: 214.3%
- MTV (n), Day 60 [7]: 40.00 (6) mm^3
- Median TTE [7]: 60 days
- T-C [7]: 40.91 days
- CR (complete regression) ([7]; n=6): 4
- NTR NTRm ([7]; n=6): 0
- PR (partial regression) ([7]; n=6): 2
- TFS (tumor-free survivor) ([7]; n=6): 2
- TR (treatment-related death) ([7]; n=6): 0
- IC50 [8]: 1.8 nM
- CR (complete regression) ([9]; n=6): 0
- NTR NTRm ([9]; n=6): 0
- PR (partial regression) ([9]; n=6): 3
- TFS (tumor-free survivor) ([9]; n=6): 0
- TR (treatment-related death) ([9]; n=6): 0
- % TGD ([9]; vehicle ET): 237.14%
- MTV (n), Day 59 ([9]; vehicle ET): 600.00 (6) mm^3
- Median TTE ([9]; vehicle ET): 59 days
- T-C ([9]; vehicle ET): 41.5 days
- IC50 [10]: 2.1 nM
- IC50 [11]: 1.4 nM
- IC50 [12]: 1.1 nM
- IC50 ([13]; MTT, 72 h, read-out: IN Vitro IC50 (nm) DLD1): > 10 nM
- IC50 ([13]; Resistance MDR1+, read-out: DLD1 Colon (Table 4, quantity not named; IC50 values as Table 2)): 20 nM
- BW Nadir [14]: −4.0% (25)
- CR (complete regression) ([14]; n=6): 0
- NTR NTRm ([14]; n=6): 0
- PR (partial regression) ([14]; n=6): 0
- TFS (tumor-free survivor) ([14]; n=6): 0
- TR (treatment-related death) ([14]; n=6): 0
- % TGD ([14]; vehicle ET): 49.06%
- Median TTE ([14]; vehicle ET): 26.92 days
- T-C (tumor growth delay) ([14]; vehicle ET, listed as 2): 8.9 days and 8.86 days
